Literature values as cited in PubChem BioAssay AID1259409 (Chemical Carcinogenesis Research Information System (CCRIS), 2018).

Tested on: rodent chemically induced tumor inhibition, incidence and multiplicity
Assay: CCRIS tumor inhibitor studies
Settings: Carcinogen: 7,12-DIMETHYLBENZ[A]ANTHRACENE, 57-97-6, Route [Inhibitor]: ORAL, Promoter: NONE USED

In the case of `O=[Se](O)O`, the “tumour outcome (control, treated, inhibition, significance)” value (Dose [Inhibitor]: 1 PPM IN DIET DAILY STARTING 1 WK PRIOR TO CARCINOGEN TREATMENT AND CONTINUING FOR DURATION OF STUDY (STUDY DURATION: 9, Species: MOUSE, Strain/Sex: BD2F1/FEMALE, Target Tissue: Type of Lesion: MAMMARY GLAND: TUMOR, Dose [Carcinogen]: 1 MG IN 0.2 ML COTTONSEED OIL 1/WK FOR 6 WK STARTING AT 8 WK OF AGE) is given as 18/32 (56%), 8/32 (25%), 55%, not calculated, the “tumour outcome (control, treated, inhibition, significance)” value (Dose [Inhibitor]: 1.5 PPM IN 5% CORN OIL DIET DAILY STARTING 29 D BEFORE CARCINOGEN TREATMENT AND CONTINUING FOR DURATION OF STUDY (STUDY, Species: RAT, Strain/Sex: SPRAGUE-DAWLEY/FEMALE, Target Tissue: Type of Lesion: MAMMARY GLAND: ADENOCARCINOMA, Dose [Carcinogen]: 5 MG IN CORN OIL ONCE AT 50 D OF AGE) is given as 12/30 (40%), 9/31 (29%), 28%, not significant and the “tumour outcome (control, treated, inhibition, significance)” value (Dose [Inhibitor]: 1.5 PPM IN 25% CORN OIL DIET DAILY STARTING 29 D BEFORE CARCINOGEN TREATMENT AND CONTINUING FOR DURATION OF STUDY (STUDY, Species: RAT, Strain/Sex: SPRAGUE-DAWLEY/FEMALE, Target Tissue: Type of Lesion: MAMMARY GLAND: ADENOCARCINOMA, Dose [Carcinogen]: 5 MG IN CORN OIL ONCE AT 50 D OF AGE) is given as 21/30 (70%), 16/29 (55%), 21%, not significant. The “tumour outcome (control, treated, inhibition, significance)” value (Dose [Inhibitor]: 2 PPM IN DIET DAILY STARTING 1 WK PRIOR TO CARCINOGEN TREATMENT AND CONTINUING FOR DURATION OF STUDY (STUDY DURATION: 9, Species: MOUSE, Strain/Sex: BALB/FEMALE, Target Tissue: Type of Lesion: MAMMARY GLAND: TUMOR, Dose [Carcinogen]: 1 MG IN 0.2 ML COTTONSEED OIL 1/WK FOR 6 WK STARTING AT 8 WK OF AGE) was 11/28 (39%), 2/28 (7%), 82%, not calculated, the “tumour outcome (control, treated, inhibition, significance)” value (Dose [Inhibitor]: 2 PPM IN DIET DAILY STARTING 1 WK PRIOR TO CARCINOGEN TREATMENT AND CONTINUING FOR DURATION OF STUDY (STUDY DURATION: 9, Species: MOUSE, Strain/Sex: BD2F1/FEMALE, Target Tissue: Type of Lesion: MAMMARY GLAND: TUMOR, Dose [Carcinogen]: 1 MG IN 0.2 ML COTTONSEED OIL 1/WK FOR 6 WK STARTING AT 8 WK OF AGE) was 18/32 (56%), 5/32 (16%), 71%, not calculated and the “tumour outcome (control, treated, inhibition, significance)” value (Dose [Inhibitor]: 2.5 MG/KG DIET DAILY STARTING 2 WK BEFORE CARCINOGEN TREATMENT AND CONTINUING FOR DURATION OF STUDY (STUDY DURATION: 26, Species: RAT, Strain/Sex: SPRAGUE-DAWLEY/FEMALE, Target Tissue: Type of Lesion: MAMMARY GLAND: ADENOCARCINOMA, Dose [Carcinogen]: 10 MG ONCE AT 50 D OF AGE) was 23/25 (92%), 18/25(72%), 22%, not significant. The “tumour outcome (control, treated, inhibition, significance)” value (Dose [Inhibitor]: 2.5 MG/KG DIET DAILY STARTING 2 WK BEFORE CARCINOGEN TREATMENT AND CONTINUING FOR DURATION OF STUDY (STUDY DURATION: 27, Species: RAT, Strain/Sex: SPRAGUE-DAWLEY/FEMALE, Target Tissue: Type of Lesion: MAMMARY GLAND: ADENOCARCINOMA, Dose [Carcinogen]: 10 MG ONCE AT 50 D OF AGE) was 28/30 (93%), 23/30(77%), 17%, not significant, the “tumour outcome (control, treated, inhibition, significance)” value (Dose [Inhibitor]: 2.5 PPM IN 5% CORN OIL DIET DAILY STARTING 29 D BEFORE CARCINOGEN TREATMENT AND CONTINUING FOR DURATION OF STUDY (STUDY, Species: RAT, Strain/Sex: SPRAGUE-DAWLEY/FEMALE, Target Tissue: Type of Lesion: MAMMARY GLAND: ADENOCARCINOMA, Dose [Carcinogen]: 5 MG IN CORN OIL ONCE AT 50 D OF AGE) was 12/30 (40%), 7/29 (24%), 40%, not significant and the “tumour outcome (control, treated, inhibition, significance)” value (Dose [Inhibitor]: 2.5 PPM IN 5% CORN OIL DIET DAILY STARTING 29 D BEFORE CARCINOGEN TREATMENT AND CONTINUING FOR DURATION OF STUDY (STUDY, Species: RAT, Strain/Sex: SPRAGUE-DAWLEY/FEMALE, Target Tissue: Type of Lesion: MAMMARY GLAND: ADENOCARCINOMA, Dose [Carcinogen]: 10 MG IN CORN OIL ONCE AT 50 D OF AGE) was 21/30 (70%), 13/29 (45%), 36%, p<0.05. For the same compound, the “tumour outcome (control, treated, inhibition, significance)” value (Dose [Inhibitor]: 2.5 PPM IN 5% CORN OIL DIET DAILY STARTING AT WEANING AND CONTINUING FOR DURATION OF STUDY (STUDY DURATION: 25 WK), Species: RAT, Strain/Sex: SPRAGUE-DAWLEY/FEMALE, Target Tissue: Type of Lesion: MAMMARY GLAND: ADENOCARCINOMA, Dose [Carcinogen]: 5 MG ONCE AT AGE 50 D) was 40%, 24%, 40%, not calculated, the “tumour outcome (control, treated, inhibition, significance)” value (Dose [Inhibitor]: 2.5 PPM IN 25% CORN OIL DIET DAILY STARTING 29 D BEFORE CARCINOGEN TREATMENT ANDCONTINUING FOR DURATION OF STUDY (STUDY, Species: RAT, Strain/Sex: SPRAGUE-DAWLEY/FEMALE, Target Tissue: Type of Lesion: MAMMARY GLAND: ADENOCARCINOMA, Dose [Carcinogen]: 5 MG IN CORN OIL ONCE AT 50 D OF AGE) was 21/30 (70%), 10/30 (33%), 53%, p<0.01 and the “tumour outcome (control, treated, inhibition, significance)” value (Dose [Inhibitor]: 2.5 PPM IN 25% CORN OIL DIET DAILY STARTING AT WEANING AND CONTINUING FOR DURATION OF STUDY (STUDY DURATION: 25 WK), Species: RAT, Strain/Sex: SPRAGUE-DAWLEY/FEMALE, Target Tissue: Type of Lesion: MAMMARY GLAND: ADENOCARCINOMA, Dose [Carcinogen]: 5 MG ONCE AT AGE 50 D) was 70%, 33%, 53%, not calculated. For the same compound, the “tumour outcome (control, treated, inhibition, significance)” value (Dose [Inhibitor]: 2.5 PPM IN HIGH-SATURATED FAT DIET CONTAINING 1% CORN OIL AND 24% HYDROGENATED COCONUT OIL DAILY STARTING AT WEANING AND, Species: RAT, Strain/Sex: SPRAGUE-DAWLEY/FEMALE, Target Tissue: Type of Lesion: MAMMARY GLAND: TUMOR, Dose [Carcinogen]: 5 MG ONCE AT AGE 50 D) was 7/25 (28%), 5/25 (20%), 29%, not significant, the “tumour outcome (control, treated, inhibition, significance)” value (Dose [Inhibitor]: 2.5 PPM IN HIGH-SATURATED FAT DIET CONTAINING 1% CORN OIL AND 24% HYDROGENATED COCONUT OIL DAILY STARTING AT WEANING AND, Species: RAT, Strain/Sex: SPRAGUE-DAWLEY/FEMALE, Target Tissue: Type of Lesion: MAMMARY GLAND: TUMOR, Dose [Carcinogen]: 10 MG ONCE AT AGE 50 D) was 16/25 (64%), 8/24 (33%), 48%, p<0.05 and the “tumour outcome (control, treated, inhibition, significance)” value (Dose [Inhibitor]: 4 MG/KG DIET DAILY FOR 28 WK STARTING 2 WK BEFORE START OF CARCINOGEN TREATMENT AND CONTINUING FOR DURATION OF STUDY (ST, Species: RAT, Strain/Sex: SPRAGUE-DAWLEY/FEMALE, Target Tissue: Type of Lesion: MAMMARY GLAND: TUMOR, Dose [Carcinogen]: 5 MG IN CORN OIL 1/WK FOR 3 WK) was 90%, 53%, 41%, p<0.01.
